Test results as given in ChEMBL document CHEMBL5465560, “Selectivity Literature for EUbOPEN Chemogenomic Library” (2024).
One block for each compound: values may come before it.

Columns and labels:
[1] = molecular target: Proto-oncogene tyrosine-protein kinase Src (Homo sapiens, UniProt P12931); experiment: Selectivity interaction (Kinase panel (Z-LYTE Assay)) EUB0001632a SRC; details: at 10 µM
[2] = molecular target: T1, Ephrin type-B receptor 3 (Homo sapiens) (UniProt P54753); experiment: Selectivity interaction (ActivX KiNativ screen (kinase selectivity in THP-1 cell lysates)) EUB0000639a EPHB3; format: subcellular; details: lysate
T1 sequence (whole entry): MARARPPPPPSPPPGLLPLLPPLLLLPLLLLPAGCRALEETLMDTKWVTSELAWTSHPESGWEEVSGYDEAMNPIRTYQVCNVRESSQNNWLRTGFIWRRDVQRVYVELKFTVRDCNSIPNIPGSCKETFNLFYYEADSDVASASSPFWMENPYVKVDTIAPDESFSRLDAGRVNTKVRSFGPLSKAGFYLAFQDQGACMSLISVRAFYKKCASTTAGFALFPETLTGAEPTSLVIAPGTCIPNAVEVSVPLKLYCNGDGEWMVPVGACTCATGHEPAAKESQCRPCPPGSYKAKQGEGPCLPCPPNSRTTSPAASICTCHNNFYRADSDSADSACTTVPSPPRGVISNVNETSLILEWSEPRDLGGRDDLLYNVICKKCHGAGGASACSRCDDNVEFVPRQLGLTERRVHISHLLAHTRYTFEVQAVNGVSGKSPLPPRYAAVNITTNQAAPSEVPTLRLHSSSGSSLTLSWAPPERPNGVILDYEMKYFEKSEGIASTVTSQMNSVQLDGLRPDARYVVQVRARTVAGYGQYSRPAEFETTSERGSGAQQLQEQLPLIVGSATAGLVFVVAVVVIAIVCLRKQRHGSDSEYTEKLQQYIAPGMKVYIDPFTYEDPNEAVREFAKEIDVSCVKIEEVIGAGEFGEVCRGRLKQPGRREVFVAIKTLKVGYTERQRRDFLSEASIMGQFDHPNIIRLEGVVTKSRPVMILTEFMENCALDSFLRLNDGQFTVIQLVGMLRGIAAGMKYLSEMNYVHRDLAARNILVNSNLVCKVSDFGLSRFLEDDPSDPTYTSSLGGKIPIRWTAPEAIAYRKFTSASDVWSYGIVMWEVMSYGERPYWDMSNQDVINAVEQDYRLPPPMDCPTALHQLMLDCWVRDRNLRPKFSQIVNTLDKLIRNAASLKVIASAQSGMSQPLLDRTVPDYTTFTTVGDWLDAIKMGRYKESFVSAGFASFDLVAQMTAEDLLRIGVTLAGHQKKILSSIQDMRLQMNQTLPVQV

[3] = molecular target: T2, Histone-lysine N-methyltransferase EHMT2 (Homo sapiens) (UniProt Q96KQ7); experiment: Selectivity interaction (Methyltransferase screen (Scintillation proximity assays)) EUB0000255b EHMT2
T2 sequence (whole entry): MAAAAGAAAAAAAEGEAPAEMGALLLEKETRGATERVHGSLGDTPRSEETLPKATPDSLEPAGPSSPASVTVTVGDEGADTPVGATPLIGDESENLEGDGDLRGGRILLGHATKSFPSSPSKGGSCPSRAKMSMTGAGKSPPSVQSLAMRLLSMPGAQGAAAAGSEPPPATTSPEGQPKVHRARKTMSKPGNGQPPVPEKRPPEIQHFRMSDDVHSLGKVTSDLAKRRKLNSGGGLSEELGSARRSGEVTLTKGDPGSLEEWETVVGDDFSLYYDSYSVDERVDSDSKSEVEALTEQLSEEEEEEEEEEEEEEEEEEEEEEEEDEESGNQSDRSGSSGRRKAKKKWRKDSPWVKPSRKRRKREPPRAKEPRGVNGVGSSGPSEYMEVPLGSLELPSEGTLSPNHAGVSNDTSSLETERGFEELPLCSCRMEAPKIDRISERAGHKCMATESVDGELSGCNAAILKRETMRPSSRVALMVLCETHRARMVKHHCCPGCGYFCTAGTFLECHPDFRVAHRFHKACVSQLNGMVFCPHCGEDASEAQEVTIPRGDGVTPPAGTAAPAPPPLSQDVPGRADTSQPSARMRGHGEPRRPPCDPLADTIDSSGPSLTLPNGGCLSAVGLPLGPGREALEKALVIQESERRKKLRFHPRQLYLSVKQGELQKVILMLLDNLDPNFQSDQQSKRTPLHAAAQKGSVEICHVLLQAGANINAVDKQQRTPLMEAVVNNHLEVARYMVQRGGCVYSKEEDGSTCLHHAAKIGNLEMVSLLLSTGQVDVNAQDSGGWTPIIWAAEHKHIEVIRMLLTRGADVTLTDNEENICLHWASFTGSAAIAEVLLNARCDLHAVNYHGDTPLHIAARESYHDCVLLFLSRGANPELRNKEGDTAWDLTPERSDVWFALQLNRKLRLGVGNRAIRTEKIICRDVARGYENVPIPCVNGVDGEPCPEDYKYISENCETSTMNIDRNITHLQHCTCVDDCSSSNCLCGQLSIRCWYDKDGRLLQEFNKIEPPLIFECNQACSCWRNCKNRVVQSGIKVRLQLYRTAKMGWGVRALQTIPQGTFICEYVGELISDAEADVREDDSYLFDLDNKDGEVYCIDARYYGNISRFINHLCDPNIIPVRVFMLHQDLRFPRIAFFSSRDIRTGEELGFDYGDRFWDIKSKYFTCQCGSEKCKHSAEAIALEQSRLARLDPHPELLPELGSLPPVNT

Proto-oncogene tyrosine-protein kinase Src, sequence (P12931 2-536 limits assumed): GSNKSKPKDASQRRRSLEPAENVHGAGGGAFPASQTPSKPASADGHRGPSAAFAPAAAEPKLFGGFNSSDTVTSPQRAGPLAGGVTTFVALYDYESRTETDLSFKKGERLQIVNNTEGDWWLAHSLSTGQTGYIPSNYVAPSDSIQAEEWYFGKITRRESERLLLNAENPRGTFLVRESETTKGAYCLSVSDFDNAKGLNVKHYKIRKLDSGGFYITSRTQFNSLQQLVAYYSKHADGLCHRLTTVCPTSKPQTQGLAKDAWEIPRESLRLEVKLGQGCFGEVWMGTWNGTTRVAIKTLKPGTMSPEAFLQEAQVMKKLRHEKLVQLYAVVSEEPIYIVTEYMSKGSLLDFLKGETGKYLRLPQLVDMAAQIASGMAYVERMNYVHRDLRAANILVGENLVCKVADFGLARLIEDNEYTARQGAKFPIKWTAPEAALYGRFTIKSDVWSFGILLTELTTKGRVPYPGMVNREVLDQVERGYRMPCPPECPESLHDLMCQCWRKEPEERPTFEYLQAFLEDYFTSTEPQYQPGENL

% of control [1]: 6.05%
Compound: Cn1cc(-n2cnc3c(NCc4nc5cc(Cl)c(Cl)cc5[nH]4)nc(N4CCOCC4)nc32)cn1

% of inhibition ([2]; at 0.01 µM): -3.9% | % of inhibition ([2]; at 0.04 µM): -40.1% | % of inhibition ([2]; at 0.2 µM): -48.3% | % of inhibition ([2]; at 1 µM): -34.8% | % of inhibition ([2]; at 5 µM): -22.6%
Compound: CC[C@@H]1[C@H](F)C(=O)N[C@@H]1COc1nccc2cc(C(N)=O)c(OC)cc12 [ZIMLOVISERTIB]

Compound: COCCN1CCC(c2cc(CN(C)C(=O)c3cccc(Oc4ccccc4)c3)ccn2)CC1
% activity ([3]; at 1 µM): > 95% | % activity ([3]; at 10 µM): > 90%
